According to PubChem BioAssay AID1919004 (Molecular Pharmacology Branch, DTP, NCI, 2023):
“And” between values parts separate entries of the source, which are not always exact repeats. Equal entries are not always repeated. Values belong to the compound of their own block, whether it stands above or below them.

Test system: 883617-216-R-J1-PDC complex spheroids, growth, % test/control
Assay: Anticancer human tumor 883617-216-R-J1-PDC patient-derived bladder carcinoma cell line growth inhibition [AhR]
Conditions: for viability, T/C: stronger effect = lower value
Method in brief: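 Spheroids combined tumor cells with HUVEC endothelial cells and human MSCs as stroma. AhR antagonists were paired with standard or investigational drugs, each dosed in half-log steps down from near clinical Cmax, or from 10 microM where Cmax was unknown.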

[1] = curve of first compound, second compound 0.1 µM
[2] = curve of first compound, second compound 0.316 µM
[3] = curve of first compound, second compound 1 µM
[4] = curve of first compound, second compound 3.16 µM
[5] = curve of first compound, second compound 10 µM
[6] = second compound 0.1 µM, first compound 0.0316 µM
[7] = second compound 0.1 µM, first compound 0.1 µM
[8] = second compound 0.316 µM, first compound 0.0316 µM
[9] = second compound 0.316 µM, first compound 0.1 µM
[10] = second compound 1 µM, first compound 0.0316 µM
[11] = second compound 1 µM, first compound 0.1 µM
[12] = second compound 3.16 µM, first compound 0.0316 µM
[13] = second compound 3.16 µM, first compound 0.1 µM
[14] = second compound 10 µM, first compound 0.0316 µM
[15] = second compound 10 µM, first compound 0.1 µM
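Also: exposure lasted 7 days after dosing on day 3 of spheroid growth.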

IC50 [1]: > 0.1 µM
IC50 [2]: > 0.1 µM
IC50 [3]: > 0.1 µM
IC50 [4]: > 0.1 µM
IC50 [5]: > 0.1 µM
Structure (SMILES): CC[C@@]1(O)C(=O)OCc2c1cc1n(c2=O)Cc2cc3c(CN(C)C)c(O)ccc3nc2-1 + Cc1ccccc1N=Nc1ccc(NC(=O)c2ccnn2C)c(C)c1
viability, T/C (second compound 0.1 µM, first compound 0.000316 µM): 90.7%
viability, T/C (second compound 0.1 µM, first compound 0.001 µM): 85%
viability, T/C (second compound 0.1 µM, first compound 0.00316 µM): 86.3%
viability, T/C (second compound 0.1 µM, first compound 0.01 µM): 80.3%
viability, T/C [6]: 76.9%
viability, T/C [7]: 71.1%
viability, T/C (second compound 0.316 µM, first compound 0.000316 µM): 86.8%
viability, T/C (second compound 0.316 µM, first compound 0.001 µM): 86.6%
viability, T/C (second compound 0.316 µM, first compound 0.00316 µM): 76.2%
viability, T/C (second compound 0.316 µM, first compound 0.01 µM): 73%
viability, T/C [8]: 70%
viability, T/C [9]: 62%
viability, T/C (second compound 1 µM, first compound 0.000316 µM): 82.5%
viability, T/C (second compound 1 µM, first compound 0.001 µM): 80.3%
viability, T/C (second compound 1 µM, first compound 0.00316 µM): 79.4%
viability, T/C (second compound 1 µM, first compound 0.01 µM): 71.4%
viability, T/C [10]: 66%
viability, T/C [11]: 69.6%
viability, T/C (second compound 3.16 µM, first compound 0.000316 µM): 70%
viability, T/C (second compound 3.16 µM, first compound 0.001 µM): 79.1%
viability, T/C (second compound 3.16 µM, first compound 0.00316 µM): 78.6%
viability, T/C (second compound 3.16 µM, first compound 0.01 µM): 74.7%
viability, T/C [12]: 70.7%
viability, T/C [13]: 71.3%
viability, T/C (second compound 10 µM, first compound 0.000316 µM): 74.2%
viability, T/C (second compound 10 µM, first compound 0.001 µM): 80.7%
viability, T/C (second compound 10 µM, first compound 0.00316 µM): 78%
viability, T/C (second compound 10 µM, first compound 0.01 µM): 70.9%
viability, T/C [14]: 75.6%
viability, T/C [15]: 73%

IC50 (curve of compound): > 1 µM
Structure (SMILES): Nc1ncn(C2CC(O)C(CO)O2)c(=O)n1 (configuration not stated)
viability, T/C (compound 0.00316 µM): 88.2% and 94.6% and 84.1%
viability, T/C (compound 0.01 µM): 93.2% and 102% and 118%
viability, T/C (compound 0.0316 µM): 94.7% and 90.6% and 73.1%
viability, T/C (compound 0.1 µM): 89.7% and 97% and 93.9%
viability, T/C (compound 0.316 µM): 85.9% and 82.2% and 113%
viability, T/C (compound 1 µM): 76.2% and 75.2% and 94.4%

IC50 [1]: 2.92 µM
IC50 [2]: 4.73 µM
IC50 [3]: 3.32 µM
IC50 [4]: 4.38 µM
IC50 [5]: 3.9 µM
Structure (SMILES): Nc1ccccc1NC(=O)c1ccc(CNC(=O)OCc2cccnc2)cc1 + CC(CO)NC(=O)c1cc(-c2ccc(Cl)cc2)nn(-c2cnn(C)c2)c1=O
viability, T/C [6]: 79.3%
viability, T/C [7]: 101%
viability, T/C (second compound 0.1 µM, first compound 0.316 µM): 90.8%
viability, T/C (second compound 0.1 µM, first compound 1 µM): 78.8%
viability, T/C (second compound 0.1 µM, first compound 3.16 µM): 48.2%
viability, T/C (second compound 0.1 µM, first compound 10 µM): 20.5%
viability, T/C [8]: 76.8%
viability, T/C [9]: 86.9%
viability, T/C (second compound 0.316 µM, first compound 0.316 µM): 113%
viability, T/C (second compound 0.316 µM, first compound 1 µM): 83%
viability, T/C (second compound 0.316 µM, first compound 3.16 µM): 68.3%
viability, T/C (second compound 0.316 µM, first compound 10 µM): 16.8%
viability, T/C [10]: 92.8%
viability, T/C [11]: 87.2%
viability, T/C (second compound 1 µM, first compound 0.316 µM): 110%
viability, T/C (second compound 1 µM, first compound 1 µM): 97.5%
viability, T/C (second compound 1 µM, first compound 3.16 µM): 51.4%
viability, T/C (second compound 1 µM, first compound 10 µM): 18.7%
viability, T/C [12]: 73.6%
viability, T/C [13]: 66.8%
viability, T/C (second compound 3.16 µM, first compound 0.316 µM): 88%
viability, T/C (second compound 3.16 µM, first compound 1 µM): 105%
viability, T/C (second compound 3.16 µM, first compound 3.16 µM): 61.2%
viability, T/C (second compound 3.16 µM, first compound 10 µM): 21.8%
viability, T/C [14]: 110%
viability, T/C [15]: 114%
viability, T/C (second compound 10 µM, first compound 0.316 µM): 104%
viability, T/C (second compound 10 µM, first compound 1 µM): 84.1%
viability, T/C (second compound 10 µM, first compound 3.16 µM): 61.1%
viability, T/C (second compound 10 µM, first compound 10 µM): 8.65%
